The record followed here is patent US8034768B2, “Composition and method for the treatment of diseases affected by histone deacetylase inhibitors” (Board of Regents, The University of Texas System, priority 2007, dated 2011).

In data set [1] the test system is prostate cancer cells. In kind it is cell-based, human. On the procedure: (§1) To evaluate anti-tumoral activity of the modified FK228 analogues, human transitional carcinoma cell lines T24, TCCSUP, 253J and human prostate cancer cell lines PC-3, LNCaP, Du-145 were cultured in T medium (Invitrogen) supplemented with 5% fetal bovine serum and 1% penicillin-streptomycin. 2×10^3 Cells in 50 μL of medium were plated into each well of a 96-well plate one day before adding compound. Each compound was diluted with DMSO to two folds of the concentrations, then 50 μL of the compound-containing medium was added into cells. Each treatment was in triplicate. Three days later, cell proliferation was measured with a cell proliferation kit (Roche). Briefly, 10 μL of MTT (3-[4,5-dimethylthiazol-2-yl]-2,5-diphenyl tetrazolium bromide) was added into each well for 4 hours, then 100 μL of the solubilization solution was added and cells were incubated for overnight. The spectrophotometrical absorbance of the samples was measured with a SpectraMax M5 plate reader (Molecular Devices) at 565 nm. The data were presented as percentage inhibition using non-treated cells as control.
FIGS. 9-11 are graphs showing dose-dependent growth inhibition of cancer cells (prostate and bladder cancers) by modified FK228 analogues. […] FIG. 10 includes the general structure in FIG. 10A including R groups. The R groups are defined in FIG. 10B and growth inhibition for the specific composition depicted in FIG. 10B are shown in FIG. 10C. […] Similarly, FIG. 11 includes the general structure in FIG. 1A including R groups. The R groups are defined in FIG. 1B and growth inhibition for the specific composition depicted in FIG. 10B are shown in FIG. 1C. […] FIG. 11A is a structure of the modified FK228 analogues and the side chain functional groups of the structure in FIG. 11A is shown in FIG. 11B. FIG. 11C is a graph of the activity as a function of side chain seen in FIG. 11B.

Data set [2] has as its system K562 cells. The data set is described as follows: Cell viability of K562 cells treated for γ-globin expression study. In kind it is cell-based. The settings on record: about 48 hours, about 0.3 μM. As to the method:
The synthesized modified FK228 analogues of the present invention were assessed to examine their capability to induce γ-globin expression. K562 cells were treated with the synthesized modified FK228 analogues at various concentrations (e.g., between about 0.01 nM and about 10 μM) for about 48 hours and expression of γ-globin was determined by real-time PCR as well as checking cell viability.

Data set [3] has as its system 3 prostate and 3 bladder cancer cells. The data set is described as follows: MTT cell proliferation assay on a variety of cancer cells (FIG. 10). It is filed as cell-based, human. As to the method: as §1
FIGS. 9-11 are graphs showing dose-dependent growth inhibition of cancer cells (prostate and bladder cancers) by modified FK228 analogues. […] FIG. 10 includes the general structure in FIG. 10A including R groups. […]
(Tetrazolium dyes change colour on reduction, which living cells bring about.)

Starred links: 1 amine or outer side, 2 acyl side, 3 side chain; linkers in the order of their positions; H or OH if unused. Positions of bridges follow the written chain, without caps; N, C: chain ends. Non-standard residues stand in square brackets, D forms with d. Residues, ends and D or L forms follow the SMILES beside them. 1Nal = N[C@@H](Cc1cccc2ccccc12)C(=O)O; 2Nal = N[C@@H](Cc1ccc2ccccc2c1)C(=O)O; Cysteamide = C(CS[*:3])N[*:1]

The term GI50 denotes the concentration giving 50% growth inhibition. A low value points to greater sensitivity of the cells. On to `CC(C)[C@H]1NC(=O)C[C@@H]2NC(=O)[C@H](Cc3cccc4ccccc34)NC(=O)[C@H](Cc3cccc4ccccc34)NC(=O)[C@@H](CSSCCNC2=O)NC1=O` [JMA47] ([dV][dC][1Nal][1Nal]D-Cysteamide; disulfide 2-C; lactam N-5), for which the GI50 in data set [1] was 47 nM.
For the compound `CC(/C=C/C(=O)NO)=C\[C@@H](C)C(=O)c1ccc(N(C)C)cc1` [TSA, Trichostatin A], the cell viability in data set [2] is recorded as 30-40%.
Turning to `CC(C)[C@H]1NC(=O)C[C@@H]2NC(=O)[C@H](Cc3ccccc3)NC(=O)[C@H](Cc3ccccc3)NC(=O)[C@@H](CSSCCNC2=O)NC1=O` [JMA26] ([dV][dC]FFD-Cysteamide; disulfide 2-C; lactam N-5), growth in data set [1] was halved (GI50) at 460 nM. In data set [3], the “cytotoxicity on a variety of cancer cells” value is on record as “high cytotoxicity”.
`CC(C)[C@H]1NC(=O)C[C@@H]2NC(=O)[C@H](Cc3ccc4ccccc4c3)NC(=O)[C@H](Cc3ccc4ccccc4c3)NC(=O)[C@@H](CSSCCNC2=O)NC1=O` [JMA33] ([dV][dC][2Nal][2Nal]D-Cysteamide; disulfide 2-C; lactam N-5) came in with a GI50 in data set [1] of 33 nM.
In data set [1], `CC(C)[C@H]1NC(=O)C[C@@H]2NC(=O)[C@H](Cc3ccccc3)NC(=O)[C@H](Cc3ccc4ccccc4c3)NC(=O)[C@@H](CSSCCNC2=O)NC1=O` [JMA46] ([dV][dC][2Nal]FD-Cysteamide; disulfide 2-C; lactam N-5) registered a GI50 of 170 nM.
